ChEMBL document CHEMBL3881525, “Analogs of dehydrophenylahistins and their therapeutic use” (2007)
pEC50, pIC50: −log10 of the molar value. ≈ marks a conversion by molar mass, not a printed value. Blank lines part the entries; values can stand above or below the compound they belong to. Calls of active or inactive are those of the source. The rule behind the calls is not given here.

Experiments:
[1] = tested on: Candida albicans; assay: Antifungal activity against Candida albicans 90028 measured after 48 hrs by broth dilution method; assay type: functional; settings: Candida albicans, 90028, 48 h
[2] = tested on: Candida albicans; assay: Antifungal activity against Candida albicans ATCC 10231 measured after 48 hrs by broth dilution method; assay type: functional; settings: ATCC 10231, 48 h
[3] = Cytotoxicity against human HT-29 cells assessed as reduction in cell viability measured after 48 hrs by resazurin dye-based fluorometric analysis relative to control; assay type: functional
[4] = Cytotoxicity against human HT-29 cells assessed as reduction in cell viability measured after 48 hrs by resazurin dye-based fluorometric analysis; assay type: functional; settings: Homo sapiens, HT-29, 48 h
[5] = Antifungal activity against Candida glabrata measured after 48 hrs by broth dilution method; assay type: functional; settings: Nakaseomyces glabratus
[6] = Cytotoxicity against human PC3 cells assessed as reduction in cell viability measured after 48 hrs by resazurin dye-based fluorometric analysis relative to control; assay type: functional, PC-3; parameters: concentration or dose not given beside the values
[7] = tested on: Aspergillus fumigatus; assay: Antifungal activity against Aspergillus fumigatus isolate 1 measured after 48 hrs by broth dilution method; assay type: functional; settings: isolate 1, 48 h
[8] = tested on: Aspergillus fumigatus; assay: Antifungal activity against Aspergillus fumigatus isolate 2 measured after 48 hrs by broth dilution method; assay type: functional; settings: isolate 2, 48 h
[9] = tested on: Aspergillus fumigatus; assay: Fungicidal activity against Aspergillus fumigatus isolate 2 measured after 48 hrs by broth dilution method; assay type: functional; settings: isolate 2, 48 h
[10] = Antiproliferative activity against taxol-resistant human MES-SA/Dx5 cells expressing MDR1 mRNA and P-gp; assay type: functional, cell-based
[11] = Cytotoxicity against mouse B16F10 cells assessed as reduction in cell viability measured after 48 hrs by resazurin dye-based fluorometric analysis; assay type: functional; settings: B16-F10, 48 h
[12] = Cytotoxicity against human PC3 cells assessed as reduction in cell viability measured after 48 hrs by resazurin dye-based fluorometric analysis; assay type: functional; settings: PC-3, 48 h
[13] = tested on: HL-60; assay: Ratio of EC50 for human mitoxantrone-sensitive HL60 cells to EC50 for human mitoxantrone-resistant HL60/MX2 cells; assay type: functional
[14] = tested on: MES-SA; assay: Ratio of EC50 for taxol-resistant human MES-SA/DX5 cells expressing MDR1 mRNA and P-gp to EC50 for taxol-sensitive human MES-SA cells; assay type: functional
[15] = Cytotoxicity against human NCI-H292 cells assessed as reduction in cell viability measured after 48 hrs by resazurin dye-based fluorometric analysis; assay type: functional; settings: NCI-H292, 48 h
[16] = target: T1, Tubulin (Homo sapiens) (UniProt P68371+Q9H4B7+P0DPH7+P68366+Q13509+Q71U36+P04350+Q3ZCM7+P07437+P68363+Q9BQE3+Q6PEY2+Q13885+Q9BVA1+Q9BUF5); assay: Induction of microtubule depolymerization in HUVEC at 1.5 to 5 uM by turbidity spectroscopic analysis; assay type: cell-based
[17] = Cytotoxicity against human MDA-MB-231 cells assessed as reduction in cell viability measured after 48 hrs by resazurin dye-based fluorometric analysis; assay type: functional; settings: MDA-MB-231, 48 h
[18] = target: T1, Tubulin (Homo sapiens); assay: Induction of microtubule depolymerization in HUVEC at 20 nM measured after 30 mins by DAPI-staining based immunofluorescence analysis; assay type: cell-based
[19] = tested on: HeLa; assay: Effect on cell cycle progression in human HeLa cells assessed as reduction in 2N cells at 40 nM; assay type: functional, cell-based
[20] = target: Tubulin (Candida albicans) (UniProt P87066+P10875+O93807); assay: Inhibition of microtubule formation in Candida albicans; assay type: protein-complex assay
Tubulin (Candida albicans), sequence (O93807 whole entry, looked up): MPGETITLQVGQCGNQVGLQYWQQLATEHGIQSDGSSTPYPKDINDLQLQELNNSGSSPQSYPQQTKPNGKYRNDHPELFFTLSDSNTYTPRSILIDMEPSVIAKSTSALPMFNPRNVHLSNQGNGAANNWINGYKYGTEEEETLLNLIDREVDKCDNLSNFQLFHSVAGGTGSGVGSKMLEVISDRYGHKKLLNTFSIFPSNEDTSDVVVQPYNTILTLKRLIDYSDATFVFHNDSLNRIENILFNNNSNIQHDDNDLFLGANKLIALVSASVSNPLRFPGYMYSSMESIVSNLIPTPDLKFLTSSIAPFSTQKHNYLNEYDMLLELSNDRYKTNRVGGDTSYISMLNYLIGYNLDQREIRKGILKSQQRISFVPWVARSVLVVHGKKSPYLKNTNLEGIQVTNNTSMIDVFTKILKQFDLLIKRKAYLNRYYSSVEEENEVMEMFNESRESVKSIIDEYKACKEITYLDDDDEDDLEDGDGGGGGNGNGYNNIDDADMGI
Tubulin (Candida albicans), sequence (P10875 whole entry, looked up): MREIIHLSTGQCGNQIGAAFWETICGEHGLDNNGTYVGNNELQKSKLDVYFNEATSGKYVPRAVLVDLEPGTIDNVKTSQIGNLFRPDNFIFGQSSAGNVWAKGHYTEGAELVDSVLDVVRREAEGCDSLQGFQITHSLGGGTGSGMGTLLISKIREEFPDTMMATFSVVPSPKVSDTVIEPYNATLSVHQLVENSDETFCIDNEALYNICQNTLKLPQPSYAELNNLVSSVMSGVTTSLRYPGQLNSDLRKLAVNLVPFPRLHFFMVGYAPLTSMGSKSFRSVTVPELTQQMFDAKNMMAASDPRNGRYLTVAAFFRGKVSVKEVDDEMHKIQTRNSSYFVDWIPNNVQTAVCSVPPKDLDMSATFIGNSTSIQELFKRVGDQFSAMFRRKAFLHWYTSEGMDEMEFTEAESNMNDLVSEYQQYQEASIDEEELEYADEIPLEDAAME
Tubulin (Candida albicans), sequence (P87066 whole entry, looked up): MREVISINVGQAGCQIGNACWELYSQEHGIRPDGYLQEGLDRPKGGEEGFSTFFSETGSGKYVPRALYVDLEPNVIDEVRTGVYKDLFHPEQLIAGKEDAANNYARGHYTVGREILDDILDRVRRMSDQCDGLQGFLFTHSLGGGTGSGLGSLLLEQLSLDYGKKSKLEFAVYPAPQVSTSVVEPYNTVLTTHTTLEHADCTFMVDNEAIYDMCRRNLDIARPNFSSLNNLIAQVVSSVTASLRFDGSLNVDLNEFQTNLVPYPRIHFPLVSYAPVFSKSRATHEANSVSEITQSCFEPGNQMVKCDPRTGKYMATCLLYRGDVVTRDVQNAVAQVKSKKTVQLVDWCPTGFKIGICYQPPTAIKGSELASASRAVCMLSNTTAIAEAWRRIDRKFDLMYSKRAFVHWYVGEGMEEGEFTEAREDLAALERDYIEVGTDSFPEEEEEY

[21] = tested on: HeLa; assay: Effect on cell cycle progression in human HeLa cells assessed as increase in 4N cells at 40 nM; assay type: functional, cell-based
[22] = target: T1, Tubulin (Homo sapiens); assay: Induction of microtubule instability in human MCF7 cells assessed as catastrophy frequency at IC50 for mitotic block measured after 20 hrs by immunofluorescence analysis; assay type: cell-based
[23] = tested on: MCF7; assay: Antimitotic activity in human MCF7 cells assessed as microtubule polymer at twice mitotic block IC50 measured after 20 hrs by immunofluorescence analysis relative to control; assay type: functional, cell-based
[24] = target: T1, Tubulin (Homo sapiens); assay: Induction of microtubule instability in human MCF7 cells assessed as time spent for attenuation at IC50 for mitotic block measured after 20 hrs by immunofluorescence analysis; assay type: cell-based
[25] = target: Tubulin (Bos taurus) (UniProt Q6B856+Q862L2+Q862F3); settings: 10 uM
Description: Inhibition of [3H]CLC binding to bovine brain tubulin at 10 uM measured after 120 mins in presence of GTP by scintillation counting method

[26] = target: T1, Tubulin (Homo sapiens); assay: Induction of microtubule instability in human MCF7 cells assessed as catastrophy frequency at IC25 for mitotic block measured after 20 hrs by immunofluorescence analysis; assay type: cell-based
[27] = tested on: MCF7; assay: Antimitotic activity in human MCF7 cells assessed as bipolar cells with uncompressed chromosomes at mitotic block IC50 measured after 20 hrs by immunofluorescence analysis relative to control; assay type: functional
[28] = target: T1, Tubulin (Homo sapiens); assay: Induction of microtubule instability in human MCF7 cells assessed as time spent for shortening at IC25 for mitotic block measured after 20 hrs by immunofluorescence analysis; assay type: cell-based
[29] = target: T1, Tubulin (Homo sapiens); assay: Induction of microtubule instability in human MCF7 cells assessed as rescue frequency at IC50 for mitotic block measured after 20 hrs by immunofluorescence analysis; assay type: cell-based
[30] = target: T1, Tubulin (Homo sapiens); assay: Time required for induction of microtubule dynamic instability in human MCF7 cells at IC25 for mitotic block measured after 20 hrs by immunofluorescence analysis; assay type: cell-based
[31] = target: T1, Tubulin (Homo sapiens); assay: Time required for induction of microtubule dynamic instability in human MCF7 cells at IC50 for mitotic block measured after 20 hrs by immunofluorescence analysis; assay type: cell-based
[32] = target: T1, Tubulin (Homo sapiens); assay: Induction of microtubule instability in human MCF7 cells assessed as time spent for shortening at IC50 for mitotic block measured after 20 hrs by immunofluorescence analysis; assay type: cell-based
[33] = target: T1, Tubulin (Homo sapiens); assay: Induction of microtubule instability in human MCF7 cells assessed as time spent for growth at IC50 for mitotic block measured after 20 hrs by immunofluorescence analysis; assay type: cell-based
[34] = target: T1, Tubulin (Homo sapiens); assay: Induction of microtubule instability in human MCF7 cells assessed as rescue frequency at IC25 for mitotic block measured after 20 hrs by immunofluorescence analysis; assay type: cell-based
[35] = target: T1, Tubulin (Homo sapiens); assay: Induction of microtubule instability in human MCF7 cells assessed as time spent for growth at IC25 for mitotic block measured after 20 hrs by immunofluorescence analysis; assay type: cell-based
[36] = tested on: MCF7; assay: Antimitotic activity in human MCF7 cells assessed as decrease in microtubule polymer formation measured after 20 hrs by immunofluorescence analysis relative to control; assay type: functional, cell-based
[37] = target: T1, Tubulin (Homo sapiens); assay: Induction of microtubule instability in human MCF7 cells assessed as time spent for attenuation at IC25 for mitotic block measured after 20 hrs by immunofluorescence analysis; assay type: cell-based
[38] = tested on: MCF7; assay: Antimitotic activity in human MCF7 cells assessed as mitotic index measured after 20 hrs by DAPI-staining based fluorescence microscopic analysis; assay type: functional, cell-based
[39] = Antiproliferative activity against human mitoxantrone-sensitive HL60 cells; assay type: functional, cell-based; settings: HL-60
[40] = tested on: Jurkat; assay: Induction of apoptosis in human Jurkat cells assessed as caspase3 activation; assay type: functional, cell-based
[41] = Antiproliferative activity against human mitoxantrone-resistant HL60/MX2 cells; assay type: functional, cell-based; settings: HL-60
[42] = target: Tubulin alpha (Homo sapiens) (UniProt P0DPH7+P68366+Q71U36+P68363+Q9BQE3+Q6PEY2+A6NHL2+Q9NY65); assay: Induction of alpha-tubulin depolymerization in HUVEC at 200 nM measured after 30 mins by DAPI staining based indirect immunofluorescence analysis; assay type: cell-based
[43] = tested on: Trichophyton mentagrophytes; assay: Fungicidal activity against Trichophyton mentagrophytes isolate 1 measured after 48 hrs by broth dilution method; assay type: functional; settings: isolate 1, 48 h
[44] = Antifungal activity against Trichophyton mentagrophytes isolate 2 measured after 48 hrs by broth dilution method; assay type: functional
[45] = Antifungal activity against Epidermophyton floccosum isolate 1 measured after 48 hrs by broth dilution method; assay type: functional
[46] = Antifungal activity against Trichophyton rubrum isolate 2 measured after 48 hrs by broth dilution method; assay type: functional
[47] = Antifungal activity against Epidermophyton floccosum isolate 2 measured after 48 hrs by broth dilution method; assay type: functional
[48] = Antifungal activity against Trichophyton rubrum isolate 1 measured after 48 hrs by broth dilution method; assay type: functional
[49] = tested on: Trichophyton rubrum; assay: Fungicidal activity against Trichophyton rubrum isolate 2 measured after 48 hrs by broth dilution method; assay type: functional; settings: isolate 2, 48 h
[50] = Antifungal activity against Trichophyton mentagrophytes isolate 1 measured after 48 hrs by broth dilution method; assay type: functional
[51] = tested on: Trichophyton rubrum; assay: Fungicidal activity against Trichophyton rubrum isolate 1 measured after 48 hrs by broth dilution method; assay type: functional; settings: isolate 1, 48 h

MIC [1]: > 32 µg/mL | MIC [2]: > 32 µg/mL | MIC [5]: > 32 µg/mL | MIC [7]: > 16 µg/mL | MIC [8]: 0.06 µg/mL (≈ 0.141 µM)
SMILES: COc1ccc(/C=c2\[nH]c(=O)/c(=C/c3nc[nH]c3C(C)(C)C)[nH]c2=O)c(OC)c1OC
inhibition (INH) [3]: 78% | pEC50 [4]: 5.32 to 5.39 | Activity [6]: 94% | MFC [9]: > 16 µg/mL

Activity [16]: Active | Activity [18]: Active
SMILES: CC(C)(C)c1ocnc1/C=c1\[nH]c(=O)/c(=C/c2c(F)c(F)cc(F)c2F)[nH]c1=O
pIC50 [10]: 7.85 | pEC50 [4]: 7.83 to 7.96 | pEC50 [11]: < 5.70 | pEC50 [12]: 7.77 | Ratio EC50 [13]: 0.4 | Ratio EC50 [14]: 1.1 | pEC50 [15]: 7.85 | pEC50 [17]: 7.38

inhibition [20]: Active
SMILES: COC(=O)Nc1nc2cc(C(=O)c3cccs3)ccc2[nH]1
Activity [19]: Active | Activity [21]: Active

SMILES: COc1ccc(/C=C\c2cc(OC)c(OC)c(OC)c2)cc1O
Activity [22]: 1.09 min⁻¹ | Activity [23]: Active | TIME [24]: 0.00917 h | inhibition [25]: Active | Activity [26]: 1.52 min⁻¹ | Activity [27]: Active | TIME [28]: 0.0035 h | Activity [29]: 2.79 min⁻¹ | TIME [30]: 0.66 h | TIME [31]: 0.653 h | TIME [32]: 0.00367 h | TIME [33]: 0.0055 h | Activity [34]: 1.9 min⁻¹ | TIME [35]: 0.0045 h | Activity [36]: Dose-dependent effect | TIME [37]: 0.0075 h | inhibition [38]: Dose-dependent effect

SMILES: O=C1c2c(O)ccc(O)c2C(=O)c2c(NCCNCCO)ccc(NCCNCCO)c21 [MITOXANTRONE]
pEC50 [39]: 6.69 to 7.38 | Activity [40]: Dose-dependent effect | pEC50 [41]: 5.31 to 5.96

SMILES: CC(C)(C)c1[nH]cnc1/C=c1\[nH]c(=O)/c(=C/c2cccc(F)c2)[nH]c1=O
Activity [42]: Active

SMILES: COc1cc(/C=c2\[nH]c(=O)/c(=C/c3nc[nH]c3C(C)(C)C)[nH]c2=O)cc(OC)c1OC
MIC [1]: > 32 µg/mL | MIC [2]: > 32 µg/mL | MFC [43]: > 16 µg/mL | pEC50 [4]: 5.70 to 6.09 | MIC [5]: > 32 µg/mL | MIC [44]: > 16 µg/mL | MIC [7]: > 16 µg/mL | MIC [8]: 0.06 µg/mL (≈ 0.141 µM) | MIC [45]: > 16 µg/mL | MIC [46]: < 0.03 µg/mL | MIC [47]: > 16 µg/mL | MIC [48]: 0.06 µg/mL (≈ 0.141 µM) | MFC [49]: < 0.03 µg/mL | MFC [9]: > 16 µg/mL | MIC [50]: 1 µg/mL (≈ 2.34 µM) | MFC [51]: > 16 µg/mL

Activity [16]: Active | Activity [18]: Active
SMILES: CC(C)(C)c1ocnc1/C=c1\[nH]c(=O)/c(=C/c2cc(F)cc(F)c2F)[nH]c1=O
pIC50 [10]: 7.89 | pEC50 [4]: 7.77 to 7.94 | pEC50 [11]: < 5.70 | pEC50 [12]: 7.68 | Ratio EC50 [13]: 0.7 | Ratio EC50 [14]: 1 | pEC50 [15]: 7.80 | pEC50 [17]: 7.28 | pEC50 [41]: 7.72
